Patent US8088791B2, “Antibacterial agents” (Biots Scientific Management Pty Ltd, priority 2006, dated 2012)
≈ marks a conversion by molar mass, not a printed value. Read-outs that look alike come from different tables or passages of the source.

What was measured:
Bacillus subtilis 168CA = assay: Minimum Inhibitory Concentration (MIC) testing, broth microdilution, Bacillus subtilis; type: cell-based; conditions: read-out: Bacillus subtilis MICs Activity
In short: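 MICs were scored A (≦8 μg/ml), B (16–64 μg/ml) or C (>64 μg/ml), read as the lowest concentration preventing visible growth by eye and spectrophotometry. Plates incubated overnight (16–20 h) at 37 °C, inoculum OD 0.09 diluted 1:100 in 2× broth, per NCCLS guidelines.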

[1] = tested on: Staphylococcus aureus ATCC29213; assay: Minimum Inhibitory Concentration (MIC) testing, broth microdilution, Staphylococcus aureus; type: cell-based
In short: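 Broth microdilution per NCCLS M7-A5 in Mueller Hinton broth, with compound in 1.6% DMSO and inoculum at OD 0.09 diluted 1:100. Plates incubated 16–20 h at 37°C. MIC is the lowest concentration with no visible growth; scored A ≤8, B 16–64, C >64 μg/ml.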

[2] = Staphylococcus aureus ATCC29213, read-out: Staphylococcus aureus MICs Activity

MIC (Bacillus subtilis 168CA; Bacillus subtilis 168CA) [µg/mL]	MIC [1, 2] [µg/mL]	SMILES	MIC (Bacillus subtilis 168CA; Bacillus subtilis, 168CA) [µg/mL]	MIC ([1]; Staphylococcus aureus, ATCC29213, read-out: Staphylococcus aureus MICs Activity) [µg/mL]
< 8	< 8	NC(=O)c1c(F)ccc(OCc2nc(-c3ccc4c(c3)OCO4)no2)c1F [Example 322, 3-(3-Benzo[1,3]dioxol-5-yl-[1,2,4]oxadiazol-5-ylmethoxy)-2,6-difluoro-benzamide]	–	–
< 8	< 8	NC(=O)c1cc(OCc2nc(-c3ccc(Cl)cc3)cs2)ccc1F [Example 272, 5-[4-(4-Chloro-phenyl)-thiazol-2-ylmethoxy]-2-fluoro-benzamide]	–	–
< 8	< 8	NC(=O)c1c(F)ccc(OCc2nc3cc(Cl)ncc3s2)c1F [Example 156, 3-(6-Chloro-thiazolo[5,4-c]pyridin-2-ylmethoxy)-2,6-difluoro-benzamide]	–	–
16 to 64 (≈ 72.3 to 289 µM)	16 to 64 (≈ 72.3 to 289 µM)	CCCCCCOc1cccc(C(N)=O)c1 [Example 8, 3-(Hexyloxy)benzenecarboxamide]	–	–
< 8	16 to 64 (≈ 46.5 to 186 µM)	Cc1nn(-c2ccccc2)nc1COc1ccc(F)c(C(N)=O)c1F [Example 325, 2,6-Difluoro-3-(5-methyl-2-phenyl-2H-[1,2,3]triazol-4-ylmethoxy)-benzamide]	–	–
< 8	< 8	COc1ccc2sc(COc3ccc(F)c(C(N)=O)c3F)nc2c1 [Example 119, 2,6-Difluoro-3-(5-methoxy-benzothiazol-2-ylmethoxy)-benzamide]	–	–
< 8	< 8	NC(=O)c1c(F)ccc(OCc2nc3cc(C4CCCCC4)ccc3s2)c1F [Example 315]	–	–
< 8	16 to 64 (≈ 44.4 to 178 µM)	CC(C)(C)c1ccc2oc(COc3ccc(F)c(C(N)=O)c3F)nc2c1 [Example 213, 3-[5-(tert-Butyl)-1,3-benzoxazol-2-yl]methoxy-2,6-difluorobenzenecarboxamide]	–	–
< 8	< 8	COc1ccc(-c2nc(COc3ccc(F)c(C(N)=O)c3F)co2)cc1 [Example 293, 2,6-Difluoro-3-[2-(4-methoxy-phenyl)-oxazol-4-ylmethoxy]-benzamide]	–	–
< 8	< 8	NC(=O)c1c(Cl)ccc(OCc2nc3cc(Cl)ccc3s2)c1F [Example 220, 6-Chloro-3-[(5-chloro-1,3-benzothiazol-2-yl)methoxy]-2-fluorobenzenecarboxamide]	–	–
> 64	> 64	Cn1ccnc1COc1ccc(F)c(C(N)=O)c1F [Example 194, 2,6-Difluoro-3-[(1-methyl-1H-imidazol-2-yl)methoxy]benzenecarboxamide]	–	–
< 8	< 8	NC(=O)c1c(F)ccc(OCc2nc(-c3ccc(OC(F)(F)F)cc3)no2)c1F [Example 292]	–	–
< 8	< 8	Cc1ccccc1-c1noc(COc2ccc(F)c(C(N)=O)c2F)n1 [Example 252, 2,6-Difluoro-3-[3-(2-methylphenyl)-1,2,4-oxadiazol-5-yl]methoxybenzenecarboxamide]	–	–
< 8	< 8	NC(=O)c1c(F)ccc(OCc2nc3cc(Cl)ccc3s2)c1Cl [Example 221, 2-Chloro-3-[(5-chloro-1,3-benzothiazol-2-yl)methoxy]-6-fluorobenzenecarboxamide]	–	–
< 8	< 8	COc1ccc(-c2nc(COc3ccc(F)c(C(N)=O)c3F)sc2Br)cc1 [Example 158, 3-[5-Bromo-4-(4-methoxy-phenyl)-thiazol-2-ylmethoxy]-2,6-difluoro-benzamide]	–	–
< 8	< 8	NC(=O)c1c(F)ccc(OCc2coc(-c3cccs3)n2)c1F [Example 133, 2,6-Difluoro-3-(2-thiophen-2-yl-oxazol-4-ylmethoxy)-benzamide]	–	–
> 64	> 64	Cc1cc(COc2ccc(F)c(C(N)=O)c2F)no1 [Example 182, 2,6-Difluoro-3-[(5-methyl-3-isoxazolyl)methoxy]benzenecarboxamide]	–	–
< 8	< 8	NC(=O)c1c(F)ccc(OCc2nc(CCc3ccccc3)cs2)c1F [Example 122, 2,6-Difluoro-3-(4-phenethyl-thiazol-2-ylmethoxy)-benzamide]	–	–
< 8	< 8	NC(=O)c1c(F)ccc(OCc2nc3cccc(Cl)c3s2)c1F [Example 104, 2,6-Difluoro-3-(7-chloro-benzothiazol-2-ylmethoxy)-benzamide]	–	–
< 8	< 8	C=CCc1ccc2sc(COc3ccc(F)c(C(N)=O)c3F)nc2c1 [Example 126, 3-(5-Allyl-benzothiazol-2-ylmethoxy)-2,6-difluoro-benzamide]	–	–
< 8	< 8	NC(=O)c1c(F)ccc(OCc2nc3cc(C4CCCC4)ccc3s2)c1F [Example 317]	–	–
16 to 64 (≈ 44.2 to 177 µM)	< 8	NC(=O)c1c(F)ccc(OCc2nc(-c3cccc(O)c3)cs2)c1F [Example 334, 2,6-Difluoro-3-[4-(3-hydroxy-phenyl)-thiazol-2-ylmethoxy]-benzamide]	–	–
< 8	< 8	NC(=O)c1c(F)ccc(OCc2nc(-c3ccc(Cl)cc3)cs2)c1Cl [Example 274, 2-Chloro-3-[4-(4-chloro-phenyl)-thiazol-2-ylmethoxy]-6-fluoro-benzamide]	–	–
< 8	< 8	NC(=O)c1c(Cl)ccc(OCc2nc(-c3ccc(Cl)cc3)cs2)c1F [Example 273, 6-Chloro-3-[4-(4-chloro-phenyl)-thiazol-2-ylmethoxy]-2-fluoro-benzamide]	–	–
16 to 64 (≈ 47.3 to 189 µM)	16 to 64 (≈ 47.3 to 189 µM)	NC(=O)c1c(F)ccc(OCc2nc(-c3nccs3)no2)c1F [Example 326, 2,6-Difluoro-3-(3-thiazol-2-yl-[1,2,4]oxadiazol-5-ylmethoxy)-benzamide]	–	–

The next lines start with the molecule.

SMILES	MIC (Bacillus subtilis 168CA; Bacillus subtilis 168CA) [µg/mL]	MIC [1, 2] [µg/mL]	MIC (Bacillus subtilis 168CA; Bacillus subtilis, 168CA) [µg/mL]	MIC ([1]; Staphylococcus aureus, ATCC29213, read-out: Staphylococcus aureus MICs Activity) [µg/mL]
NC(=O)c1cc(OCc2nc(-c3ccc(Cl)cc3)no2)ccc1F [Example 268, 5-[3-(4-Chloro-phenyl)-[1,2,4]oxadiazol-5-ylmethoxy]-2-fluoro-benzamide]	< 8	16 to 64 (≈ 46 to 184 µM)	–	–
CC(=O)Oc1cccc(COc2cccc(C(N)=O)c2)c1 [Example 172, 3-[3-(Aminocarbonyl)phenoxy]methylphenyl acetate]	> 64	> 64	–	–
Cc1noc(C)c1-c1nc(COc2ccc(F)c(C(N)=O)c2F)no1 [Example 145, 3-[5-(3,5-Dimethyl-isoxazol-4-yl)-[1,2,4]oxadiazol-3-ylmethoxy]-2,6-difluoro-benzamide]	16 to 64 (≈ 45.7 to 183 µM)	> 64	–	–
NC(=O)c1c(F)ccc(OCc2csc(-c3ccc(OC(F)(F)F)cc3)n2)c1F [Example 307, 2,6-Difluoro-3-[2-(4-trifluoromethoxy-phenyl)-thiazol-4-ylmethoxy]-benzamide]	< 8	< 8	–	–
CCCCCCCCCCOc1ccc(F)c(C(N)=O)c1 [Example 71, 2-Fluoro-5-(decyloxy)benzenecarboxamide]	< 8	< 8	–	–
NC(=O)c1c(F)ccc(OCc2nc(-c3cccs3)no2)c1F [Example 153, 2,6-Difluoro-3-(3-thiophen-2-yl-[1,2,4]oxadiazol-5-ylmethoxy)-benzamide]	< 8	< 8	–	–
NC(=O)c1c(F)ccc(OCc2nc3cc(-c4ccccc4N)ccc3s2)c1F [Example 141, 3-[5-(2-Amino-phenyl)-benzothiazol-2-ylmethoxy]-2,6-difluoro-benzamide]	< 8	< 8	–	–
NC(=O)c1c(F)ccc(OCc2ccsc2)c1F [Example 188, 2,6-Difluoro-3-(3-thienylmethoxy)benzenecarboxamide]	16 to 64 (≈ 59.4 to 238 µM)	16 to 64 (≈ 59.4 to 238 µM)	–	–
COc1ccc(-c2nc(COc3ccc(F)c(C(N)=O)c3F)sc2-c2ccccc2O)cc1 [Example 277, 2,6-Difluoro-3-[5-(2-hydroxy-phenyl)-4-(4-methoxy-phenyl)-thiazol-2-ylmethoxy]-benzamide]	< 8	< 8	–	–
CCCCCCCCCOc1cccc(C(N)=O)c1 [Example 1, 3-Nonyloxy-benzenecarboxamide]	< 8	< 8	–	–
NC(=O)c1c(F)ccc(OCc2nc(-c3ccccc3)co2)c1F [Example 310, 2,6-Difluoro-3-(4-phenyl-oxazol-2-ylmethoxy)-benzamide]	< 8	16 to 64 (≈ 48.4 to 194 µM)	–	–
NC(=O)c1c(F)ccc(OCc2cncs2)c1F [Example 189, 2,6-Difluoro-3-(1,3-thiazol-5-ylmethoxy)benzenecarboxamide]	> 64	> 64	–	–
NC(=O)c1c(F)ccc(OCc2nc3cc(C4=CCCC4)ccc3s2)c1F [Example 316]	–	< 8	< 8	–
NC(=O)c1c(F)ccc(OCc2nc(-c3ccc(C(F)(F)F)cc3)cs2)c1F [Example 319, 2,6-Difluoro-3-[4-(4-trifluoromethyl-phenyl)-thiazol-2-ylmethoxy]-benzamide]	< 8	< 8	–	–
CC/C=C\CCCCOc1ccc(F)c(C(N)=O)c1 [Example 73, 2-Fluoro-5-[(Z)-5-octenyloxy]benzenecarboxamide]	< 8	< 8	–	–
COc1ccc(-c2nc(COc3ccc(F)c(C(N)=O)c3F)sc2-c2cncs2)cc1 [Example 164, 2,6-Difluoro-3-[4-(4-methoxy-phenyl)-[5,5′]bithiazolyl-2-ylmethoxy]-benzamide]	–	–	< 8	< 8
N#Cc1ccc(-c2nc(COc3ccc(F)c(C(N)=O)c3F)sc2Br)cc1 [Example 291, 3-[5-Bromo-4-(4-cyano-phenyl)-thiazol-2-ylmethoxy]-2,6-difluoro-benzamide]	< 8	< 8	–	–
NC(=O)c1c(F)ccc(OCc2cc3ccccc3s2)c1F [Example 206, 3-(1-Benzothiophen-2-ylmethoxy)-2,6-difluorobenzenecarboxamide]	< 8	> 64	–	–
